≈ marks a conversion by molar mass, not a printed value. Read-outs that look alike come from different tables or passages of the source. Marks after values point to notes of the source that are not given here. Bridge positions count the residues as written; N and C are the ends. Square brackets hold non-standard residues; d marks the D form. Peptide text beside a SMILES is read from it. d(aThr) = C[C@@H](O)[C@@H](N)C(=O)O; Dhb = C/C=C(\N)C(=O)O
Experiments:
[1] = test system: S. aureus vancomycin-resistant; experiment: Liquid inhibition assay (MIC); type: cell-based, Staphylococcus aureus; settings: vancomycin-resistant S. aureus (VRSA), 96-well, MH medium, ~5 × 10^4 CFU/well, 18 h at 37 °C, absorbance at 600 nm
Method: (§1) To evaluate the antimicrobial potential of all samples, the MICs for E. coli ATCC® 10536™, S. aureus ATCC® 6538™, S. aureus ATCC® 6538p™, methicillin-resistant S. aureus (MRSA), macrolide-resistant S. aureus ([…]), quinolone-resistant S. aureus (QRSA), vancomycin-resistant S. aureus (VRSA), S. epidermidis RP206 [7], S. xylosus MB 5209 [77] were determined by the liquid inhibition assay. Briefly, the bacterial strains were inoculated in 3 mL of liquid Mueller–Hinton broth (MHB) (HiMedia, Einhausen, Germany) in sterile bacteriological tubes and incubated in agitation at 37 °C until they reached the turbidity of 0.5 McFarland. Different from the remaining pathogens, L. monocytogenes MB 677 [79] was diluted in the Trypticasein soy broth (TSB) medium with an additional 0.6% yeast extract. Finally, serial dilutions of the inoculum were performed to obtain a final bacterial concentration of about 5 × 10^5 CFU/mL. Then, 4 µL of each sample was added into a 96-well microtiter plate containing 200 µL of MH medium. After being serially diluted using MH medium, 100 µL of bacterial suspension was inoculated into the broth (~5 × 10^4 CFU/well) and incubated statically for 18 h at 37 °C. DMSO was used as a control to determine the effect of solvent on cell growth. Vancomycin, erythromycin, and ampicillin were used as positive controls.

S. aureus 6538p = experiment: microbe, parasite or virus in culture; type: cell-based, Staphylococcus aureus
Method: as §1

S. aureus 6538 = experiment: microbe, parasite or virus in culture; type: cell-based, Staphylococcus aureus
Method: as §1

[2] = test system: S. aureus macrolide-resistant; experiment: microbe, parasite or virus in culture; type: cell-based, Staphylococcus aureus
Method: as §1

[3] = test system: S. aureus methicillin-resistant; experiment: microbe, parasite or virus in culture; type: cell-based, Staphylococcus aureus
Method: as §1

[4] = test system: S. aureus quinolone-resistant; experiment: microbe, parasite or virus in culture; type: cell-based, Staphylococcus aureus
Method: as §1

S. xilosus MB5209 = experiment: microbe, parasite or virus in culture; type: cell-based, S. xylosus
Method: as §1

S. epidermidis RP206 = type: cell-based; settings: RP206, 18 h
Method: as §1

L. monocytogenes 677 = experiment: microbe, parasite or virus in culture; type: cell-based, Listeria monocytogenes
Method: as §1

E. coli ATCC 10536 = experiment: Liquid inhibition assay (MIC); type: cell-based, Escherichia coli; settings: Gram-negative E. coli ATCC 10536
Method: as §1

CC[C@H]1OC(=O)[C@H](C)[C@@H](O[C@H]2C[C@@](C)(OC)[C@@H](O)[C@H](C)O2)[C@H](C)[C@@H](O[C@@H]2O[C@H](C)C[C@H](N(C)C)[C@H]2O)[C@](C)(O)C[C@@H](C)C(=O)[C@H](C)[C@@H](O)[C@]1(C)O [erythromycin] was tested, and the MIC ([1]; Staphylococcus aureus, read-out: MIC) was 1 µg/mL (≈ 1.36 µM) and the MIC [1] was 1 ^b μg/mL.
For CN[C@H](CC(C)C)C(=O)N[C@H]1C(=O)N[C@@H](CC(N)=O)C(=O)N[C@H]2C(=O)N[C@H]3C(=O)N[C@H](C(=O)N[C@H](C(=O)O)c4cc(O)cc(O)c4-c4cc3ccc4O)[C@H](O)c3ccc(c(Cl)c3)Oc3cc2cc(c3O[C@@H]2O[C@H](CO)[C@@H](O)[C@H](O)[C@H]2O[C@H]2C[C@](C)(N)[C@H](O)[C@H](C)O2)Oc2ccc(cc2Cl)[C@H]1O [Vancomycin], the MIC (S. aureus 6538p; S. aureus 6538p, 96-well, MH medium, ~5 × 10^4 CFU/well, 18 h at 37 °C, absorbance at 600 nm, lowest concentration that completely inhibited growth) was 1 ^a μg/mL, the MIC (S. aureus 6538p; Staphylococcus aureus, 6538P, 18 h) was 1 µg/mL (≈ 0.69 µM) and the MIC (S. aureus 6538; S. aureus 6538, 96-well, MH medium, ~5 × 10^4 CFU/well, 18 h at 37 °C, absorbance at 600 nm) was 0.5 ^a μg/mL. For the same compound, the MIC (S. aureus 6538; Staphylococcus aureus, 6538, 18 h) was 0.5 µg/mL (≈ 0.345 µM), the MIC ([2]; Staphylococcus aureus, 18 h) was 0.5 µg/mL (≈ 0.345 µM) and the MIC ([2]; macrolide-resistant S. aureus, 96-well, MH medium, ~5 × 10^4 CFU/well, 18 h at 37 °C, absorbance at 600 nm) was 0.5 ^a μg/mL. For the same compound, the MIC ([3]; Staphylococcus aureus, 18 h) was 0.5 µg/mL (≈ 0.345 µM), the MIC ([3]; methicillin-resistant S. aureus, 96-well, MH medium, ~5 × 10^4 CFU/well, 18 h at 37 °C, absorbance at 600 nm) was 0.5 ^a μg/mL and the MIC ([4]; Staphylococcus aureus, 18 h) was 0.5 µg/mL (≈ 0.345 µM). For the same compound, the MIC ([4]; quinolone-resistant S. aureus, 96-well, MH medium, ~5 × 10^4 CFU/well, 18 h at 37 °C, absorbance at 600 nm) was 0.5 ^a μg/mL, the MIC (S. xilosus MB5209; S. xilosus MB5209, 96-well, MH medium, ~5 × 10^4 CFU/well, 18 h at 37 °C, absorbance at 600 nm) was 0.5 ^a μg/mL and the MIC (S. xilosus MB5209; Staphylococcus xylosus, MB5209, 18 h) was 0.5 µg/mL (≈ 0.345 µM).
Work on C/C=C1\NC(=O)[C@H](C)NC(=O)[C@H](C(C)C)NC(=O)[C@H](NC(=O)[C@H](Cc2ccccc2)NC(=O)[C@@H](CC(C)C)NC(=O)[C@@H](Cc2ccccc2)NC(C)=O)[C@@H](C)OC1=O [TL-119] (Ac-[dF][dL]F[d(aThr)]VA[Dhb]; ester 4-C) yielded an MIC (S. aureus 6538p; 6538p, 18 h) of 0.24 µg/mL (≈ 0.299 µM), an MIC (S. aureus 6538; 6538, 18 h) of 0.24 µg/mL (≈ 0.299 µM) and an MIC ([2]; macrolide-resistant, 18 h) of 1.9 µg/mL (≈ 2.36 µM). For the same compound, the MIC ([3]; methicillin-resistant, 18 h) was 3.9 µg/mL (≈ 4.85 µM), the MIC ([4]; quinolone-resistant, 18 h) was 0.9 µg/mL (≈ 1.12 µM) and the MIC (S. epidermidis RP206) was 7.8 µg/mL (≈ 9.7 µM). The MIC (S. xilosus MB5209; 18 h) was 7.8 µg/mL (≈ 9.7 µM), the MIC (L. monocytogenes 677; 677, 18 h) was 0.24 µg/mL (≈ 0.299 µM) and the “antibacterial activity (in words)” value (E. coli ATCC 10536) was “lack of antibacterial activity”.
In the case of CC1(C)S[C@@H]2[C@H](NC(=O)[C@H](N)c3ccccc3)C(=O)N2[C@H]1C(=O)O [ampicillin], the MIC (L. monocytogenes 677; L. monocytogenes 677, diluted in TSB with 0.6% yeast extract, 18 h at 37 °C, absorbance at 600 nm) is reported as 1 ^c μg/mL and the MIC (L. monocytogenes 677; Listeria monocytogenes, 677, 18 h) is reported as 1 µg/mL (≈ 2.86 µM).

From PMC11766569, “Novel Insights into the Nobilamide Family from a Deep-Sea Bacillus: Chemical Diversity, Biosynthesis and Antimicrobial Activity Towards Multidrug-Resistant Bacteria” (Marine Drugs, 2025)
